Source: patent publication US11293024B2, “Antisense antibacterial compounds and methods” (priority 2014, dated 2022)
{(RXR)4XB} = cell-penetrating peptide (RXR)4XB; {Ac} = acetyl (COCH3) cap

Assays:
Type in all cases: cell-based, Pseudomonas aeruginosa
P. aeruginosa PAO1 = assay: MIC of Ampicillin as a function of AmpR PPMO and PMBN concentration
Description: An AmpR PPMO combined with PMBN restores activity of Ampicillin in P. aeruginosa PAO1.
The ability to use PPMOs as adjunctive therapeutics to restore antibiotic sensitivity to existing drugs could be an intriguing way to explore treatment of multidrug-resistant pathogens that are increasingly being found in chronically infected patients. Frequently encountered resistance genes (β-lactamases, efflux pumps) were targeted. […] An exemplary PPMO, as set forth in Table 5 and illustrated below, was designed to target AmpR in P. aeruginosa, a global transcriptional regulator that regulates β-lactamases such as AmpC. […] Testing the AmpR PPMO in animal models would be a reasonable alternative approach to thinking of antisense as adjuvant therapy with traditional antibiotics.

[1] = system: P. aeruginosa PAO1 biofilm; assay: Biofilm prevention in MBEC plate (crystal violet); settings: 5 μM PPMO, 2 μg/mL PMBN, MHII, 20 hours; one-way ANOVA p<0.0001
Protocol: P. aeruginosa PAO1 (5×10^5 cfu/mL) was grown in MHII media in an MBEC plate for 20 hours either alone or in the presence of 5 μM of the indicated PPMOs, PMBN alone, (RXR)4, or a scrambled PPMO. All conditions contained 2 μg/mL of PMBN unless indicated otherwise. Pegs were processed for crystal violet or visualized by microscopy at 20 hours. […] FIGS. 6B-6D: Spinning Disk confocal microscopy images of 20 hour biofilm treated with (FIG. 6B) No PPMO, (FIG. 6C) 5 μM Scr PPMO #41, (FIG. 6D) 5 μM RpsJ PPMO #14. PAO1 GFP is shown in green and biofilm is shown in red. The biofilm is stained with 200 μg/mL of Concanavalin A, Alexafluor 647 conjugate.
Pseudomonas aeruginosa Biofilm Prevention in MBEC Plate Protocol
• 1. 10 mL of MH is inoculated with a single colony and incubated at 37° C. and ˜250 rpm for about 5 hours. • 2. The sample is centrifuged for 10 minutes at ˜4000 rpm at 4° C., the supernatant is decanted and the pellet resuspended in 10 mL of 150 mM NaCl or PBS. This step is repeated to wash the pellet 3 times. • 3. The sample is resuspended in 10 mL 150 mM NaCl or PBS. • 4. The OD600 of the sample is taken and cfu/mL is calculated. (OD600 usually between 0.65-0.80). • 5. A Bacterial Working Solution (BWS) is made by inoculating 10 mL of MH to 5×10^5 cfu/mL final concentration. • 6. 2 μL/mL of 1 mg/mL stock PMBN is added to the BWS and vortexed 3 times. • 7. 1 mL of BWS is pipetted into each separate Eppendorf tube for each condition that is tested. • 8. An appropriate amount of PPMO is added to each Eppendorf tube and vortexed 3 times. • 9. Outside wells are filled with fresh MH, NaCl, or PBS to keep the outer pegs from drying out. • 10. One column of the MBEC plate is filled with 150 μL per well from each Eppendorf tube (one condition per column). • 11. Pegs are placed into the MBEC plate and the edges covered with a breathable membrane. • 12. The MBEC plate is incubated for 18-20 hours at 37° C. and 110 rpm. Day 2:
1. […] The final OD570 of the 10× dilution of solution should be approximately 0.500 absorbance. […]
2. OD reading: The OD570 for the 96-well plate from step 1e is determined. […]

[2] = system: P. aeruginosa strains that are multidrug resistant (strain T63547); assay: MIC in multidrug resistant P. aeruginosa strains; settings: strain T63547 (CF sputum; resistant to extended-spectrum penicillins, cephalosporins, quinolones, carbapenems)
Protocol: In addition, MIC values of 8 μM or less in P. aeruginosa strains that are multidrug resistant have been achieved. For example, strain T63547 was isolated from the sputum of a CF patient and was resistant to extended-spectrum penicillins, cephalosporins, quinolones and carbapenems. The RpsJ PPMOs and the RpmB PPMO had MIC values of 4 μM. PPMOs also retained activity in mucoid strains of P. aeruginosa (such as strain H27925; CF sputum sample). This is a critically important finding, as mucoid Pseudomonas poses significant treatment challenges.

[3] = system: panel of P. aeruginosa clinical isolates; assay: MIC of PPMOs with sub-inhibitory concentrations of Colistin (polymyxin E); settings: Colistin alone at either 1 or 0.5 μg/ml (depending on the strain)
Protocol: MICs are indicated by color and numerical value as in FIG. 1. All MICs were performed in the presence of 1 μg/mL of Colistin unless otherwise noted (*Strains with an asterisk were tested with 0.5 μg/mL of Colistin).
The overnight culture is plated to determine CFU/ml of starting inoculum. From the overnight culture 4 μl is taken into 10 ml of fresh medium and mixed well to obtain a bacterial working suspension. From the 10 ml, 50 μl is taken into 450 μl of saline. Serial dilutions of 10^−2, 10^−3 and 10^−4 are plated on BA. If Polymyxin B Nonapeptide (PMBN) is to be added, 4 μl/ml of PMBN is added from a stock of 1 mg/ml (in water) to the bacterial suspension for a 4 μg/ml final PMBN concentration.
For every PPMO to be tested, the following is done: 6.8 μl of a 1 mM PPMO stock is added to 413.2 μl of bacterial working suspension and vortexed. 200 μl is placed in the first row (A) of a 96-well plate in duplicate. 100 μl of bacterial working suspension is added to rows B thru F. Row A is mixed well by pipetting 10 times. Then 100 μl from each well of row A is added to the 100 μl of bacterial working suspension in each well of row B and mixed well 10 times. Serial dilutions are continued in the same manner through to row F. Finally, 100 μl in the last row is removed and discarded. […]
The plate is read in a plate reader to measure OD600. […]

## CC1(C)S[C@@H]2[C@H](NC(=O)[C@H](N)c3ccccc3)C(=O)N2[C@H]1C(=O)O [Ampicillin, ampicillin, reference compound]
P. aeruginosa PAO1; Pseudomonas aeruginosa, PAO1, in the absence of PPMO
  MIC: 512 µg/mL

## PPMO #2: LpxC PMO GTTGTTTGATC, 5′ TEG, 3′ (RXR)4XB CPP
[1]
  prevention of biofilm (crystal violet): statistically significant prevention of biofilm

## PPMO #5: RpmB PMO CTCTAGACATG, 5′ TEG, 3′ (RXR)4XB CPP
[2]
  MIC: 4 µM
[1]
  prevention of biofilm (crystal violet): statistically significant prevention of biofilm

## PPMO #28: ampR PMO GTCGAACCAAT, 5′ (RXR)4XB CPP, 3′ COCH3 (all phosphorodiamidate morpholino (PMO), 5' {(RXR)4XB}, 3' {Ac})
P. aeruginosa PAO1; in the presence of 32 μM AmpR PPMO and 4 μg/ml PMBN
  MIC of Ampicillin: 4 µg/mL

## polymyxin E [Colistin]
[3]
  growth inhibition by Colistin alone: did not inhibit growth
